Test results taken from article PMC6248945, “Antibacterial properties of the pituitary adenylate cyclase-activating polypeptide: A new human antimicrobial peptide” (PLoS ONE, 2018).
≈ marks a conversion by molar mass, not a printed value. Read-outs that look alike come from different tables or passages of the source. Where a SMILES comes first, the peptide text is derived from it. Where no end group is shown, it is not given here.

Legend:
CHO-K1 = conditions: various eukaryotic cells including CHO-K1; cited from earlier work
Source text: This peptide, well known for its pleiotropic activities in human, mediates its biological activities through the activation of three G protein-coupled receptors, named PAC1, VPAC1, and VPAC2[8]. […] The ...

human PAC1 receptor = target: T1, human PAC1 receptor (Homo sapiens, UniProt P41586); assay: Radioligand binding assay, 125I-Ac-PACAP27
T1 construct: expressed in transfected cells
T1 sequence (P41586 21-468): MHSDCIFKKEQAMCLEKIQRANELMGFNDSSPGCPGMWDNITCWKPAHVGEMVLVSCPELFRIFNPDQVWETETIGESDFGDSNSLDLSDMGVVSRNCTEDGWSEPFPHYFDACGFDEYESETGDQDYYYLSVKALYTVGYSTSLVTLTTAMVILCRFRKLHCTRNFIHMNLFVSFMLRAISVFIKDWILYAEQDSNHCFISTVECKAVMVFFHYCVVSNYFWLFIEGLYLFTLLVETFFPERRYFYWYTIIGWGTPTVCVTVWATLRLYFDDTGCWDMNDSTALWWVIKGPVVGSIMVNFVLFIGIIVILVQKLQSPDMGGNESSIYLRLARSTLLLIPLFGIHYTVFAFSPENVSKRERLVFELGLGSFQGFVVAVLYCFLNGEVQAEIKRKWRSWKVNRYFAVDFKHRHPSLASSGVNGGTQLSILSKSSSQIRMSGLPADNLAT

human VPAC1 receptor = target: T2, human VPAC1 receptor (Homo sapiens, UniProt P32241); assay: Radioligand binding assay, 125I-Ac-PACAP27
T2 construct: expressed in transfected cells
T2 sequence (P32241 31-457): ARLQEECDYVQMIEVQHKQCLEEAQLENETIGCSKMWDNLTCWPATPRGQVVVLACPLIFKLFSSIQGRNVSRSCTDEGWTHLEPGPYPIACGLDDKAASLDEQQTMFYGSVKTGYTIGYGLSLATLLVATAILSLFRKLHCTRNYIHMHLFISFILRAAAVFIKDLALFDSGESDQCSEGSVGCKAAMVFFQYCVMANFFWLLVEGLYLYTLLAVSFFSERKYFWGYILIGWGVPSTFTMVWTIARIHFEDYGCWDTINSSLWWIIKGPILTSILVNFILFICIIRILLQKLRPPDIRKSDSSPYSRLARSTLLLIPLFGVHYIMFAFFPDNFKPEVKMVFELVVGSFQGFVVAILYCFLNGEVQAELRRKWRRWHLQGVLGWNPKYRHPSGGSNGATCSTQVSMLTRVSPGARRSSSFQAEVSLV
Method: (§1) Chinese hamster ovary (CHO) cells stably and individually expressing human receptor PAC1, VPAC1 or VPAC2 were grown in Ham’s F12 medium supplemented with 10% of fetal bovine serum (FBS), 2 mM L-glutamine, 100 UI/mL of penicillin and streptomycin (P/S) and 400 μg/mL of G418. The cell line was maintained at 37 °C in a humidified atmosphere of 5% CO2 and passages were performed by trypsinization when cells reached about 80% confluence.
(§2) Acetylated PACAP27 was radioiodinated using the chloramine-T oxidation technique and purified on a Sep-Pak C18 cartridge (Waters, Milford, MA, USA). Binding assays were performed using CHO cells stably transfected with the human PAC1, VPAC1 or VPAC2 receptor isoform. Cells were seeded at a density of 150,000 cells/well in 24-well plates. The next day, cells were washed with binding buffer (0.1% BSA, 25 mM Tris–HCl, 25 mM MgCl2, pH 7.4) for 10 min at room temperature. The solution was replaced with a fresh solution containing 0.05 nM of ^125I-Ac-PACAP27 and increasing concentrations of peptide (10^−14 to 10^-5M). After 2h of incubation at room temperature, cells were washed twice with the binding buffer and then lysed with sodium hydroxide (0.1 M). Cell-bound radioactivity was quantified using a γ-counter. Results were expressed as percentage of specific binding of ^125I-Ac-PACAP27.

human VPAC2 receptor = target: T3, human VPAC2 receptor (Homo sapiens, UniProt P41587); assay: Radioligand binding assay, 125I-Ac-PACAP27; conditions: CHO cells expressing human VPAC2, 0.05 nM 125I-Ac-PACAP27, 2h, room temperature
T3 construct: expressed in transfected cells
T3 sequence (P41587 24-438): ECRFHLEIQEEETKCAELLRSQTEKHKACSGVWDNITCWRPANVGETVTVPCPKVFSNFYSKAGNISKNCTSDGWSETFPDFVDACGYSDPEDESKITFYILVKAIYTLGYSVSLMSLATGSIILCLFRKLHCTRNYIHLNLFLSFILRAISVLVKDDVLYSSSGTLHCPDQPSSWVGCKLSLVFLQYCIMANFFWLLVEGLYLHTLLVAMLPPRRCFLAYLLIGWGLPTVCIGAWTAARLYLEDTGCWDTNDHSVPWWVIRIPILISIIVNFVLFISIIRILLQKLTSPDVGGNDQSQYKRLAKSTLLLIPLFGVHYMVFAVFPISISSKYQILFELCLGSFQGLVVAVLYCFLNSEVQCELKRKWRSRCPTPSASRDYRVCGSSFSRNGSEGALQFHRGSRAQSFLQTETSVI
Method: as §1, §2

Red blood cells = assay: Haemolytic activity; type: cell-based; conditions: human red blood cells in PBS, 30 min or 3h, 37°C; at 45 μg/mL (PACAP38) or 37 μg/mL (PACAP(9–38)); absorbance 545 nm; 3 independent experiments in triplicate
Method: All experimental procedures were performed in accordance with regulations and ethical guidelines and approved by the institutional committee of the Institut National de la Recherche Scientifique-Institut Armand-Frappier. Blood from healthy human volunteers was collected into sodium citrate-buffered vacutainers. Blood donations were obtained from informed and consenting individuals according to institutionally approved procedures. Red blood cells were pelleted (700 x g; 10 min), washed three times with 9 volumes of PBS by centrifugation (700 x g; 10 min), and then resuspended in PBS. […] PBS-incubated red blood cells were considered as negative control and maximum lysis of erythrocytes was obtained by incubating the cells with 0.1% (v/v) Triton X-100. At the end of the incubation period, cells were pelleted (700 x g, 10 min) and 100 μL of each supernatant was used to evaluate the release of hemoglobin by measuring the absorbance at 545 nm. Results were obtained from 3 independent experiments performed in triplicate.

Escherichia coli (JM109) = assay: MIC, CLSI microdilution; type: cell-based; conditions: MHB, 37 °C, 20h, OD read-out, at least triplicate
[1] = tested on: Pseudomonas putida (KT2440); conditions: 20 h
[2] = tested on: Pseudomonas fluorescens (MF37); conditions: 20 h
[3] = tested on: Pseudomonas aeruginosa (PA14); conditions: PA14, 20 h
[4] = tested on: Burkholderia cenocepacia (J2315); conditions: 20 h
[5] = tested on: Burkholderia thailendensis (ATCC700388); conditions: CLSI microdilution, MHB, 37 °C, 20h, OD read-out; at least triplicate
[6] = tested on: Serratia marcescens (ATCC14756); conditions: ATCC14756, 20 h
[7] = tested on: Bacillus circulans (LSPQ3543); conditions: 20 h
[8] = tested on: Bacillus cereus (ATCC11778); conditions: ATCC11778, 20 h
[9] = tested on: Actinobacillus pleuropneumoniae (4074); conditions: 20 h
Bacillus subtilis (PY79) = conditions: PY79, 20 h
Bacillus velezensis = conditions: 20 h
[10] = tested on: Bacillus amyloliquefaciens (LMG22478); conditions: LMG22478, 20 h
[11] = tested on: Staphylococcus aureus (ATCC6538#P); conditions: ATCC6538, 20 h
[12] = tested on: Staphylococcus aureus (Newman); conditions: 20 h
[13] = tested on: Pseudomonas aeruginosa (ATCC33350-Sero-2); conditions: ATCC33350, 20 h
[14] = tested on: Escherichia coli ATCC25922; conditions: ATCC25922, 20 h
[15] = tested on: Escherichia coli (O157 :H7); conditions: CLSI microdilution, MHB, 37 °C, 20h, OD read-out; at least triplicate
[16] = tested on: Burkholderia cenocepacia (K56-2); conditions: 20 h
[17] = tested on: Burkholderia cenocepacia (LMG18829); conditions: LMG18829, 20 h
[18] = tested on: Burkholderia cenocepacia (LMG19240); conditions: CLSI microdilution, MHB, 37 °C, 20h, OD read-out; at least triplicate
[19] = tested on: Burkholderia cenocepacia (CEP0511 Gvar3b); conditions: CLSI microdilution, MHB, 37 °C, 20h, OD read-out; at least triplicate
Bacillus subtilis (2597) = conditions: 2597, 20 h
[20] = tested on: various bacterial strains; conditions: CLSI microdilution

[Arg^17]PACAP(11–38) (SRYRKQRAVKKYLAAVLGKRYKQRVKNK; ends and bridges not checked; UniProt P18509 142-169, looked up, variant M17R)
Cytotoxic effect (CHO-K1): no cytotoxic effect

CSCC[C@H](NC(=O)[C@H](CCC(N)=O)NC(=O)[C@H](CCCCN)NC(=O)[C@H](CCCN=C(N)N)NC(=O)[C@H](Cc1ccc(O)cc1)NC(=O)[C@H](CCCN=C(N)N)NC(=O)[C@H](CO)NC(=O)[C@H](Cc1ccc(O)cc1)NC(=O)[C@@H](N)CO)C(=O)N[C@@H](C)C(=O)N[C@H](C(=O)N[C@@H](CCCCN)C(=O)N[C@@H](CCCCN)C(=O)N[C@@H](Cc1ccc(O)cc1)C(=O)N[C@@H](CC(C)C)C(=O)N[C@@H](C)C(=O)N[C@@H](C)C(=O)N[C@H](C(=O)N[C@@H](CC(C)C)C(=O)NCC(=O)N[C@@H](CCCCN)C(=O)N[C@@H](CCCN=C(N)N)C(=O)N[C@@H](Cc1ccc(O)cc1)C(=O)N[C@@H](CCCCN)C(=O)N[C@@H](CCC(N)=O)C(=O)N[C@@H](CCCN=C(N)N)C(=O)N[C@H](C(=O)N[C@@H](CCCCN)C(=O)N[C@@H](CC(N)=O)C(=O)N[C@@H](CCCCN)C(N)=O)C(C)C)C(C)C)C(C)C [compound 10, PACAP(9–38)] (H-SYSRYRKQMAVKKYLAAVLGKRYKQRVKNK-NH2)
IC50 (human PAC1 receptor): > 1000 nM
IC50 (human PAC1 receptor; PAC1 pIC50, CHO cells expressing human PAC1, 0.05 nM 125I-Ac-PACAP27, 2h, room temperature): 1350 nM
IC50 (human VPAC1 receptor): > 1000 nM
IC50 (human VPAC1 receptor; VPAC1 pIC50, CHO cells expressing human VPAC1, 0.05 nM 125I-Ac-PACAP27, 2h, room temperature): 5130 nM
IC50 (human VPAC2 receptor; 95% confidence limits in parentheses): > 1000 nM
IC50 (human VPAC2 receptor; read-out: VPAC2 pIC50 (converted)): 1700 nM
Haemolytic activity (Red blood cells): do not exert a very significant haemolytic activity

CC[C@H](C)[C@H](NC(=O)CNC(=O)[C@H](CC(=O)O)NC(=O)[C@H](CO)NC(=O)[C@@H](N)Cc1cnc[nH]1)C(=O)N[C@@H](Cc1ccccc1)C(=O)N[C@H](C(=O)N[C@@H](CC(=O)O)C(=O)N[C@@H](CO)C(=O)N[C@@H](Cc1ccc(O)cc1)C(=O)N[C@@H](CO)C(=O)N[C@@H](CCCNC(=N)N)C(=O)N[C@@H](Cc1ccc(O)cc1)C(=O)N[C@@H](CCCNC(=N)N)C(=O)N[C@@H](CCCCN)C(=O)N[C@@H](CCC(N)=O)C(=O)N[C@@H](CCSC)C(=O)N[C@@H](C)C(=O)N[C@H](C(=O)N[C@@H](CCCCN)C(=O)N[C@@H](CCCCN)C(=O)N[C@@H](Cc1ccc(O)cc1)C(=O)N[C@@H](CC(C)C)C(=O)N[C@@H](C)C(=O)N[C@@H](C)C(=O)N[C@H](C(=O)N[C@@H](CC(C)C)C(=O)NCC(=O)N[C@@H](CCCCN)C(=O)N[C@@H](CCCNC(=N)N)C(=O)N[C@@H](Cc1ccc(O)cc1)C(=O)N[C@@H](CCCCN)C(=O)N[C@@H](CCC(N)=O)C(=O)N[C@@H](CCCNC(=N)N)C(=O)N[C@H](C(=O)N[C@@H](CCCCN)C(=O)N[C@@H](CC(N)=O)C(=O)N[C@@H](CCCCN)C(N)=O)C(C)C)C(C)C)C(C)C)[C@@H](C)O [compound 1, PACAP38]
MIC, Escherichia coli (JM109) (Escherichia coli (JM109)): >200 µg/mL
Haemolytic activity (Red blood cells): do not exert a very significant haemolytic activity
MIC, Pseudomonas putida (KT2440) [1]: 113 µg/mL (≈ 24.9 µM)
MIC, Pseudomonas fluorescens (MF37) [2]: >200 µg/mL
MIC, Pseudomonas aeruginosa (PA14) [3]: >200 µg/mL
MIC, Burkholderia cenocepacia (J2315) [4]: 10 µg/mL (≈ 2.21 µM)
MIC, Burkholderia thailendensis (ATCC700388) [5]: >200 µg/mL
MIC, Serratia marcescens (ATCC14756) [6]: >200 µg/mL
MIC, Bacillus circulans (LSPQ3543) [7]: 94 µg/mL (≈ 20.7 µM)
MIC, Bacillus cereus (ATCC11778) [8]: >200 µg/mL
MIC, Actinobacillus pleuropneumoniae [9]: 7.5 µg/mL (≈ 1.65 µM)
MIC, Bacillus subtilis (PY79) (Bacillus subtilis (PY79)): 28 µg/mL (≈ 6.18 µM)
MIC, Bacillus velezensis (Bacillus velezensis): 76 µg/mL (≈ 16.8 µM)
MIC, Bacillus amyloliquefaciens [10]: 42 µg/mL (≈ 9.26 µM)
MIC, Staphylococcus aureus (ATCC6538#P) [11]: >200 µg/mL
MIC, Staphylococcus aureus (Newman) [12]: >200 µg/mL
MIC, Pseudomonas aeruginosa (ATCC33350-Sero-2) [13]: >200 µg/mL
MIC, Escherichia coli ATCC25922 [14]: >200 µg/mL
MIC, Escherichia coli (O157 :H7) [15]: >200 µg/mL
MIC, Burkholderia cenocepacia (K56-2) [16]: >200 µg/mL
MIC, Burkholderia cenocepacia (LMG18829) [17]: >200 µg/mL
MIC, Burkholderia cenocepacia (LMG19240) [18]: >200 µg/mL
MIC, Burkholderia cenocepacia (CEP0511 Gvar3b) [19]: >200 µg/mL
MIC, Bacillus subtilis (2597) (Bacillus subtilis (2597)): >200 µg/mL

CC[C@H](C)[C@H](NC(=O)CNC(=O)[C@H](CC(=O)O)NC(=O)[C@H](CO)NC(=O)[C@@H](N)Cc1c[nH]cn1)C(=O)N1Cc2ccccc2C[C@H]1C(=O)N[C@H](C(=O)N[C@@H](CC(=O)O)C(=O)N[C@@H](CO)C(=O)N[C@@H](Cc1ccc(O)cc1)C(=O)N[C@@H](CO)C(=O)N[C@@H](CCCNC(=N)N)C(=O)N[C@@H](Cc1ccc(O)cc1)C(=O)N[C@@H](CCCNC(=N)N)C(=O)N[C@@H](CCCCN)C(=O)N[C@@H](CCC(N)=O)C(=O)N[C@@H](CCSC)C(=O)N[C@@H](C)C(=O)N[C@H](C(=O)N[C@@H](CCCCN)C(=O)N[C@@H](CCCCN)C(=O)N[C@@H](Cc1ccc(O)cc1)C(=O)N[C@@H](CC(C)C)C(=O)N[C@@H](C)C(=O)N[C@@H](C)C(=O)N[C@H](C(=O)N[C@@H](CC(C)C)C(N)=O)C(C)C)C(C)C)[C@@H](C)O [compound 8, [Tic^6]PACAP27]
MIC, Escherichia coli (JM109) (Escherichia coli (JM109)): >160 µg/mL
MIC, Pseudomonas putida (KT2440) [1]: >160 µg/mL
MIC, Pseudomonas fluorescens (MF37) [2]: >160 µg/mL
MIC, Pseudomonas aeruginosa (PA14) [3]: >160 µg/mL
MIC, Burkholderia cenocepacia (J2315) [4]: >160 µg/mL
MIC, Burkholderia thailendensis (ATCC700388) [5]: >160 µg/mL
MIC, Serratia marcescens (ATCC14756) [6]: >160 µg/mL
MIC, Bacillus circulans (LSPQ3543) [7]: >160 µg/mL
MIC, Bacillus cereus (ATCC11778) [8]: >160 µg/mL
MIC, Actinobacillus pleuropneumoniae [9]: >160 µg/mL
MIC, Bacillus subtilis (PY79) (Bacillus subtilis (PY79)): >160 µg/mL
MIC, Bacillus velezensis (Bacillus velezensis): >160 µg/mL
MIC, Bacillus amyloliquefaciens [10]: >160 µg/mL
MIC, Staphylococcus aureus (ATCC6538#P) [11]: >160 µg/mL
MIC, Staphylococcus aureus (Newman) [12]: >160 µg/mL
MIC (ability to reduce bacterial growth, tested strains) [20]: > 160 µg/mL
